Experimental data taken from PubChem BioAssay (NCI).
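Following 48 hours of exposure in 96-well plates, responses at five concentrations were used to interpolate endpoints linearly. TGI denotes the concentration required for complete inhibition of growth.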

Columns and labels:
Assay in all cases: NCI tumour cell line growth inhibition, 48 h
786-0 renal = test system: 786-0 renal
A498 renal = test system: A498 renal
A549 NSCLC = test system: A549 NSCLC
ACHN renal = test system: ACHN renal
CAKI-1 renal = test system: CAKI-1 renal
CCRF-CEM leukemia = test system: CCRF-CEM leukemia
COLO 205 colon = test system: COLO 205 colon
DMS 114 small cell lung = test system: DMS 114 small cell lung
EKVX NSCLC = test system: EKVX NSCLC
HCC-2998 colon = test system: HCC-2998 colon
HCT-116 colon = test system: HCT-116 colon
HCT-15 colon = test system: HCT-15 colon
HL-60(TB) leukemia = test system: HL-60(TB) leukemia
HOP-62 NSCLC = test system: HOP-62 NSCLC
HT29 colon = test system: HT29 colon
IGROV1 ovarian = test system: IGROV1 ovarian
K-562 leukemia = test system: K-562 leukemia
KM12 colon = test system: KM12 colon
KM20L2 colon = test system: KM20L2 colon
LOX IMVI melanoma = test system: LOX IMVI melanoma
M14 melanoma = test system: M14 melanoma
M19-MEL melanoma = test system: M19-MEL melanoma
MALME-3M melanoma = test system: MALME-3M melanoma
MOLT-4 leukemia = test system: MOLT-4 leukemia
NCI-H226 lung = test system: NCI-H226 lung
NCI-H23 lung = test system: NCI-H23 lung
NCI-H460 lung = test system: NCI-H460 lung
NCI-H522 lung = test system: NCI-H522 lung
OVCAR-3 ovarian = test system: OVCAR-3 ovarian
OVCAR-4 ovarian = test system: OVCAR-4 ovarian
OVCAR-5 ovarian = test system: OVCAR-5 ovarian
OVCAR-8 ovarian = test system: OVCAR-8 ovarian
RPMI-8226 leukemia = test system: RPMI-8226 leukemia
RXF 393 renal = test system: RXF 393 renal
SF-268 CNS = test system: SF-268 CNS
SF-295 CNS = test system: SF-295 CNS
SF-539 CNS = test system: SF-539 CNS
SK-MEL-2 melanoma = test system: SK-MEL-2 melanoma
SK-MEL-28 melanoma = test system: SK-MEL-28 melanoma
SK-MEL-5 melanoma = test system: SK-MEL-5 melanoma
SK-OV-3 ovarian = test system: SK-OV-3 ovarian
SN12C renal = test system: SN12C renal
SNB-19 CNS = test system: SNB-19 CNS
SNB-75 CNS = test system: SNB-75 CNS
SNB-78 CNS = test system: SNB-78 CNS
SR leukemia = test system: SR leukemia
SW-620 colon = test system: SW-620 colon
TK-10 renal = test system: TK-10 renal
U251 CNS = test system: U251 CNS
UACC-257 melanoma = test system: UACC-257 melanoma
UACC-62 melanoma = test system: UACC-62 melanoma
UO-31 renal = test system: UO-31 renal
DLD-1 colon = test system: DLD-1 colon
DMS 273 small cell lung = test system: DMS 273 small cell lung
LXFL 529 NSCLC = test system: LXFL 529 NSCLC
HOP-92 NSCLC = test system: HOP-92 NSCLC

CN(C)C(=S)/N=c1\ss/c(=N\C(=S)N(C)C)n1C1CCCCC1
TGI (786-0 renal): > 100 µM
TGI (A498 renal): > 100 µM
TGI (A549 NSCLC): > 100 µM
TGI (ACHN renal): > 100 µM
TGI (CAKI-1 renal): > 100 µM
TGI (CCRF-CEM leukemia): > 100 µM
TGI (COLO 205 colon): > 100 µM
TGI (DMS 114 small cell lung): 24.2 µM
TGI (EKVX NSCLC): > 100 µM
TGI (HCC-2998 colon): > 100 µM
TGI (HCT-116 colon): > 100 µM
TGI (HCT-15 colon): > 100 µM
TGI (HL-60(TB) leukemia): > 100 µM
TGI (HOP-62 NSCLC): > 100 µM
TGI (HT29 colon): 43.8 µM
TGI (IGROV1 ovarian): > 100 µM
TGI (K-562 leukemia): > 100 µM
TGI (KM12 colon): > 100 µM
TGI (KM20L2 colon): > 100 µM
TGI (LOX IMVI melanoma): > 100 µM
TGI (M14 melanoma): > 100 µM
TGI (M19-MEL melanoma): > 100 µM
TGI (MALME-3M melanoma): > 100 µM
TGI (MOLT-4 leukemia): > 100 µM
TGI (NCI-H226 lung): > 100 µM
TGI (NCI-H23 lung): > 100 µM
TGI (NCI-H460 lung): 15.5 µM
TGI (NCI-H522 lung): > 100 µM
TGI (OVCAR-3 ovarian): > 100 µM
TGI (OVCAR-4 ovarian): 63 µM
TGI (OVCAR-5 ovarian): > 100 µM
TGI (OVCAR-8 ovarian): > 100 µM
TGI (RPMI-8226 leukemia): > 100 µM
TGI (RXF 393 renal): > 100 µM
TGI (SF-268 CNS): > 100 µM
TGI (SF-295 CNS): > 100 µM
TGI (SF-539 CNS): > 100 µM
TGI (SK-MEL-2 melanoma): > 100 µM
TGI (SK-MEL-28 melanoma): > 100 µM
TGI (SK-MEL-5 melanoma): > 100 µM
TGI (SK-OV-3 ovarian): > 100 µM
TGI (SN12C renal): > 100 µM
TGI (SNB-19 CNS): > 100 µM
TGI (SNB-75 CNS): > 100 µM
TGI (SNB-78 CNS): > 100 µM
TGI (SR leukemia): > 100 µM
TGI (SW-620 colon): > 100 µM
TGI (TK-10 renal): > 100 µM
TGI (U251 CNS): > 100 µM
TGI (UACC-257 melanoma): > 100 µM
TGI (UACC-62 melanoma): > 100 µM
TGI (UO-31 renal): > 100 µM

CNc1nc(N)cc(=O)[nH]1
TGI (786-0 renal): > 100 µM
TGI (A498 renal): > 100 µM
TGI (A549 NSCLC): > 100 µM
TGI (ACHN renal): > 100 µM
TGI (CAKI-1 renal): > 100 µM
TGI (CCRF-CEM leukemia): > 100 µM
TGI (COLO 205 colon): > 100 µM
TGI (DLD-1 colon): > 100 µM
TGI (DMS 114 small cell lung): > 100 µM
TGI (DMS 273 small cell lung): > 100 µM
TGI (EKVX NSCLC): > 100 µM
TGI (HCC-2998 colon): > 100 µM
TGI (HCT-116 colon): > 100 µM
TGI (HCT-15 colon): > 100 µM
TGI (HL-60(TB) leukemia): > 100 µM
TGI (HOP-62 NSCLC): > 100 µM
TGI (HT29 colon): > 100 µM
TGI (IGROV1 ovarian): > 100 µM
TGI (K-562 leukemia): > 100 µM
TGI (KM12 colon): > 100 µM
TGI (KM20L2 colon): > 100 µM
TGI (LOX IMVI melanoma): > 100 µM
TGI (LXFL 529 NSCLC): > 100 µM
TGI (M14 melanoma): > 100 µM
TGI (M19-MEL melanoma): > 100 µM
TGI (MALME-3M melanoma): > 100 µM
TGI (MOLT-4 leukemia): > 100 µM
TGI (NCI-H226 lung): > 100 µM
TGI (NCI-H23 lung): > 100 µM
TGI (NCI-H460 lung): > 100 µM
TGI (NCI-H522 lung): > 100 µM
TGI (OVCAR-3 ovarian): > 100 µM
TGI (OVCAR-4 ovarian): > 100 µM
TGI (OVCAR-5 ovarian): > 100 µM
TGI (OVCAR-8 ovarian): > 100 µM
TGI (RPMI-8226 leukemia): > 100 µM
TGI (SF-268 CNS): > 100 µM
TGI (SF-295 CNS): > 100 µM
TGI (SK-MEL-2 melanoma): > 100 µM
TGI (SK-MEL-28 melanoma): > 100 µM
TGI (SK-MEL-5 melanoma): > 100 µM
TGI (SK-OV-3 ovarian): > 100 µM
TGI (SN12C renal): > 100 µM
TGI (SNB-19 CNS): > 100 µM
TGI (SNB-75 CNS): > 100 µM
TGI (SNB-78 CNS): > 100 µM
TGI (SW-620 colon): > 100 µM
TGI (TK-10 renal): > 100 µM
TGI (U251 CNS): > 100 µM
TGI (UACC-257 melanoma): > 100 µM
TGI (UACC-62 melanoma): > 100 µM
TGI (UO-31 renal): > 100 µM

Cc1ccc(-c2cc(=S)n(-c3ccccc3)c3nc(=S)n(-c4ccccc4)c(N)c23)cc1
TGI (786-0 renal): > 100 µM
TGI (A549 NSCLC): > 100 µM
TGI (ACHN renal): > 100 µM
TGI (CAKI-1 renal): > 100 µM
TGI (CCRF-CEM leukemia): > 100 µM
TGI (COLO 205 colon): > 100 µM
TGI (DLD-1 colon): > 100 µM
TGI (DMS 114 small cell lung): > 100 µM
TGI (DMS 273 small cell lung): > 100 µM
TGI (HCC-2998 colon): > 100 µM
TGI (HCT-116 colon): > 100 µM
TGI (HCT-15 colon): > 100 µM
TGI (HL-60(TB) leukemia): > 100 µM
TGI (HOP-62 NSCLC): > 100 µM
TGI (HOP-92 NSCLC): > 100 µM
TGI (HT29 colon): > 100 µM
TGI (IGROV1 ovarian): > 100 µM
TGI (K-562 leukemia): > 100 µM
TGI (KM12 colon): > 100 µM
TGI (KM20L2 colon): > 100 µM
TGI (LXFL 529 NSCLC): > 100 µM
TGI (M14 melanoma): > 100 µM
TGI (M19-MEL melanoma): > 100 µM
TGI (MALME-3M melanoma): > 100 µM
TGI (MOLT-4 leukemia): > 100 µM
TGI (NCI-H226 lung): > 100 µM
TGI (NCI-H23 lung): > 100 µM
TGI (NCI-H460 lung): > 100 µM
TGI (NCI-H522 lung): > 100 µM
TGI (OVCAR-3 ovarian): > 100 µM
TGI (OVCAR-4 ovarian): > 100 µM
TGI (OVCAR-5 ovarian): > 100 µM
TGI (OVCAR-8 ovarian): > 100 µM
TGI (RPMI-8226 leukemia): > 100 µM
TGI (SF-268 CNS): > 100 µM
TGI (SF-295 CNS): > 100 µM
TGI (SF-539 CNS): > 100 µM
TGI (SK-MEL-2 melanoma): > 100 µM
TGI (SK-MEL-28 melanoma): > 100 µM
TGI (SK-MEL-5 melanoma): > 100 µM
TGI (SNB-19 CNS): > 100 µM
TGI (SNB-75 CNS): > 100 µM
TGI (SR leukemia): > 100 µM
TGI (SW-620 colon): > 100 µM
TGI (TK-10 renal): > 100 µM
TGI (U251 CNS): > 100 µM
TGI (UACC-257 melanoma): > 100 µM
TGI (UACC-62 melanoma): > 100 µM
TGI (UO-31 renal): > 100 µM
